Columns and labels:
[1] = Redox metal ion binding affinity, visible spectroscopic titration (Fe3+); conditions: visible spectroscopy, 480 nm (430 nm for pyridoxamine); read-out: Fe^3+ Kd
Description: (§1) The AGE inhibition by these types of compounds is believed to occur when the compounds interfere with the role of the required redox metal ions in the oxidative breakdown of the Amadori intermediates to advanced glycation end products (“glycoxidation”). […] These spectral titrations usually involve adding varying amounts of compound to a fixed amount of metal ion in a suitable buffer having low metal ion affinity under physiological pH conditions. In cases of extreme affinity, binding constants were estimated in a competitive assay mode.
(§2) Binding affinity is measured as the dissociation constants Kd (units of concentration). All measurements were done by visible spectroscopy by monitoring the spectrum of the complex formed by each compound near its wavelength maximum, which depends on the metal ion being studied.

[2] = Redox metal ion binding affinity, visible spectroscopic titration (Cu2+); conditions: visible spectroscopy, physiological pH; read-out: Cu^2+ Kd
Description: as §1, §2

HepG2 cells = assay: Cell based toxicity assay (MTT); conditions: fixed concentration 1 mM
Description: Hepatotoxicity is one of the major causes of drug failure in the clinic. HepG2 cells are human cells derived from a liver tumor, and express many of the proteins and detoxification pathways of normal hepatocytes, and so make a reasonable model for initial cellular toxicity testing of candidate compounds. The test is based on the active conversion of 3-[4,5-dimethylthiazol-2-yl]-2,5-dephenyltetrazolium bromide (MTT) by mitochondrial oxidation-reduction reactions into blue formazan crystals. Decreased crystal formation corresponds to decreased cell viability. Azide and chlorpromazine served as a positive controls
10×MTT stock solution (5 mg/ml MTT in 0.9% NaCl)
0.04 N HCl in isopropanol
Compound stocks: 100 mM in 100% DMSO
MTT working solution: diluting 10×MTT stock into culture medium.
Test article in cell culture medium; Final DMSO concentration on the cells varies with the compound concentration (Final concentration of solvents such as DMSO should be kept at or below 1%)
• 1. Aspirate culture medium from HepG2 cells. Replace culture medium with test article dissolved in culture medium. • 2. Incubate in 37° C., 5% CO2 incubator for 16-24 hours. • 3. Aspirate the medium from the cells; replace with an equal volume of 37° C. MTT working solution. • 4. Incubate for 3 hours. • 5. Replace MTT solution with an equal volume of acidified isopropanol. • 6. […] Read the absorbance of the solution at 570 nm. […]

[3] = In vivo plasma concentration and metabolites (HPLC fluorescence, LC-MS/MS); conditions: for metabolites in plasma: mice plasma
Description: The plasma drawn from the mice in the above MTD study was examined by an HPLC fluorescence method for the presence of parent drug at different times as well as for the possible presence of metabolites. […] An HPLC fluorescence method was developed to assay for parent drugs and possible metabolites of each drug. The HPLC method was further adapted for LC-MS/MS study by changing from phosphoric acid to volatile 20 mM ammonium acetate.
Possible structures for the metabolites include the following: […]

[4] = tested on: streptozotocin (STZ)-diabetic rats; assay: Efficacy study in STZ rat model of diabetic neuropathy (nerve conduction velocity); type: in vivo
Description: The STZ rat model has been described previously in WO 2004/019889. Our aim was to ascertain whether BST-605 treatment could correct nerve dysfunction in streptozotocin (STZ)-diabetic rats. Animals were made diabetic for 6 weeks, following which they were treated (n=6) for 2 weeks with BST-605 given in the drinking water at concentrations adjusted to correspond to doses of 0.22, 0.67 and 2.0 mg/kg/day. They were compared to control non-diabetic rats (n=10).
Motor NCV was tested between the sciatic notch and knee for the nerve branch to tibialis anterior muscle, as described in Cameron et al., Q. J. Exp. Physiol. 74:917-926 (1989); and Cameron et al, Exp. Neurol. 92:757-761 (1986).
Saphenous sensory NCV was measured between the groin and ankle.

[5] = Drug exposure in plasma of STZ rats at sacrifice; type: in vivo; conditions: lowest two doses
Description: A determination of drug exposure was also made from plasma collected from STZ rats at sacrifice that were dosed at the lowest two doses. […] The detection of parent drugs and metabolites in the STZ rat, as in the mice plasma, confirms that sufficient exposure to the drug occurred in the studies so as to make the toxicity findings and in vivo efficacy reflective of drug administration.

RNase-Amadori = assay: Post-Amadori AGE/CML ELISA inhibition assay; type: biochemical; conditions: for IC50: 20 hours at 37° C.
Description: Using a novel modification of the AGE Inhibition assay, we have determined the post-Amadori AGE inhibition potency for compounds of interest. The experiments were designed to determine the half-maximal inhibitory concentration of compounds (“IC50 values”) for inhibiting the conversion of Amadori intermediates to advanced glycation end products. The post Amadori AGE/CML ELISA assay has been developed to a 384 well format for rapidly testing potential inhibitors prepared from DMSO stocks. Assay signal to background ratios are high, at greater than 20:1. Results in this format for AGE inhibitors agree well with previous data, providing some measure of method validation, making the assay is robust and reliable. Compounds for testing were dissolved at 100 mM or their maximum concentration in 100% DMSO. […] A subset of compounds were not fully soluble in DMSO at concentrations as low as 10 mM. […] When necessary, the activity of compounds was subsequently confirmed in a more thorough repeat test against AGE formation from both RNase Amadori and BSA Amadori. Typically, from DMSO stocks, two stock plates were made. Each well contained 50 μL.
The stock plate #2 was then frozen at −20° C. during preparation. Later, stock plate #2 was removed from the freezer and allowed to thaw for 30 minutes. The compounds in the plate were then mixed repeatedly with a pipettor and diluted 5× into 0.01 N HCl in H2O.
Further dilutions were then carried out spanning two orders of magnitude of concentration. After the compounds were diluted, 10 ul of phosphate buffer was added to each well and mixed to neutralize the solution before protein addition. Next 15 μL of 0.333 mg/mL of RNase-Amadori in phosphate buffer was added from a stock of ribose-RNAse prepared at 10.7 mg/mL. These constitute the AGE reaction mixtures. All AGE reactions proceeded for 20 hours at 37° C. Reactions were then diluted 50 fold into coating buffer by 10× then 5× serial dilution. Coating proceeded at 37° C. for two hours. Final protein was 0.1 μg/well in 384 well plates (2 μg/mL). ELISA was carried out similarly to before using the primary antibody BST-3CK at 1:10000 dilution, and the secondary antibody labeled with DELPHIA Europium GAR at 1:4000 dilution.

male mice = conditions: mouse, in vivo, po
Description: A seven day repeat oral gavage study was carried out in male mice in order to detect any obvious signs of clinical toxicity upon administration of BST-605. For comparison, two groups were dosed with BST-4997 and BST-146 (acetyl ester of BST-4997 that is rapidly hydrolyzed to parent BST-4997). Dosing was done daily at 10, 30 and 100 mg/kg/day, and blood draws were taken at the end of study at 1, 2, 4 and 8 h post-dosing.

[6] = Redox metal ion binding affinity, visible spectroscopic titration (Fe2+); conditions: visible spectroscopy, 480 nm (430 nm for pyridoxamine); read-out: Fe^2+ Kd
Description: as §1, §2

STZ rats = assay: Tissue staining for carboxymethyllysine (CML) AGEs in nerve vasculature; type: in vivo; conditions: compared to diabetic controls
Description: This was done by quantitative measurements of tissue staining for carboxymethyllysine (CML) AGEs, using anti-CML antibodies.

[7] = STZ rats, 2 weeks in drinking water, 0.22, 0.67 and 2.0 mg/kg/day

SMILES	Kd [1]	Kd [2]	acute toxicity in HepG2 cell viability (MTT) (HepG2 cells)	metabolites in plasma [3]	plasma concentration of parent drug versus dose ([3]; mice, plasma 1, 2, 4 and 8 h post-dosing, 10, 30 and 100 mg/kg/day)	diabetic complications in STZ rat model ([4]; STZ rat model)	restoration of nerve conduction velocity in motor (sciatic nerve) neurons [4, 7]	restoration of nerve conduction velocity in sensory (saphenous) neurons [4, 7]	drug exposure in plasma [5]	Potency Relative to BST-4997 (RNase-Amadori)	potency over BST-4997 (RNase-Amadori)	potency over pyridoxamine (RNase-Amadori)	IC50 (RNase-Amadori)	clinical toxicity in MTD study (male mice)	Kd [6]	AGE (CML) staining in the nerve vasculature (STZ rats)
Cc1ncc(CN2CCN(C)CC2)c(-c2ncc[nH]2)c1O [BST-605]	520 µM	0.13 µM	no acute toxicity	oxidized and/or undergone glucuronidation	proportional to dose	ameliorates diabetic complications	efficacy at very low concentrations	efficacy at very low concentrations	Drug exposure was observed and measured	6	6 fold	50 fold	100 µM	no adverse clinical signs or gross examination findings	720 µM	
Cc1ncc(CO)c(-c2ncc[nH]2)c1O [BST-4997, reference compound]	610 µM	1.13 µM	some evidence of toxicity	oxidized and/or undergone glucuronidation						(1)			600 µM	significant toxicity at and above 30 mg/kg/day	690 µM	significant decrease in AGE staining
Cc1ncc(CO)c(CN)c1O [Pyridoxamine, pyridoxamine, reference compound]													5000 µM			

Source: patent US9428533B2, “Inhibitors of advanced glycation end products” (NephroGenex, Inc., priority 2006, dated 2016)
